The values that follow come from patent publication US9783556B2, “Kinase inhibitors” (RESPIVERT LIMITED, priority 2012, dated 2017).

Each structure is given as a SMILES string. Read-outs that look alike come from different tables or passages of the source.

For assay [1], the system named is TNBS-induced colitis in mice. The experiment in a line: TNBS-induced colitis in mice. It is filed as in vivo. Here is the method:
On Day 0 of the study TNBS (200 μL) is administered intra-colonically via a plastic catheter followed by BID dosing of the vehicle, reference or test compound for 2 or 4 days. During the study animals are weighed every day and stool observations are made and recorded as a score, based on stool consistency. At the time of sacrifice on Day 2 (or Day 4) the large intestine is removed and the length and weight recorded. Sections of the colon are taken for either MPO analysis to determine neutrophil infiltration or for histopathology involving scoring to determine disease severity.

The target of another assay is c-Src (Homo sapiens (Human), UniProt P12931). The experiment in a line: c-Src enzyme inhibition (Z-LYTE FRET). The assay is classed as biochemical. Here is the method:
(§1) The enzyme inhibitory activities of compounds disclosed herein are determined by FRET using synthetic peptides labelled with both donor and acceptor fluorophores (Z-LYTE, Invitrogen Ltd., Paisley, UK).
(§2) The inhibitory activities of compounds of the invention against c-Src and Syk enzymes (Invitrogen), are evaluated in a similar fashion to that described hereinabove. The relevant enzyme (3000 ng/mL or 2000 ng/mL respectively, 2.5 μL) is incubated with the test compound (either 4 μg/mL, 0.4 μg/mL, 0.04 μg/mL, or 0.004 μg/mL, 2.5 μL each) for 2 hr at RT. The FRET peptides (8 μM, 2.5 μL), and appropriate ATP solutions (2.5 μL, 800 μM for c-Src, and 60 μM ATP for Syk) are then added to the enzymes/compound mixtures and incubated for 1 hr. Development reagent (protease, 5 μL) is added for 1 hr prior to detection in a fluorescence microplate reader (Varioskan® Flash, ThermoFisher Scientific).
(§3) In all cases, the site-specific protease cleaves non-phosphorylated peptide only and eliminates the FRET signal. Phosphorylation levels of each reaction are calculated using the ratio of coumarin emission (donor) over fluorescein emission (acceptor), for which high ratios indicate high phosphorylation and low ratios indicate low phosphorylation levels. The percentage inhibition of each reaction is calculated relative to non-inhibited control and the 50% inhibitory concentration (IC50 value) is then calculated from the concentration-response curve.

The subject of assay [2] is PBMCs. The experiment in a line: IL-2 and IFN gamma release in CD3/CD28 stimulated PBMC cells. It is filed as cell-based. The conditions noted are these: Homo sapiens. On the procedure:
PBMCs from healthy subjects are separated from whole blood using a density gradient (Lymphoprep, Axis-Shield Healthcare). Cells are added to a 96 well plate pre-coated with a mixture of CD3/CD38 monoclonal antibodies (0.3 μg/mL eBioscience and 3 μg/mL BD Pharmingen respectively). Compound at the desired concentration is then added to the wells and the plate left for 3 days under normal tissue culture conditions. Supernatants are harvested and IL-2 and IFN gamma release determined by Sandwich ELISA (Duo-set, R&D System). The IC50 is determined from the dose response curve.

The target of another assay is GSK 3α (Homo sapiens (Human), UniProt P49840). The experiment in a line: GSK 3α enzyme inhibition (Z-LYTE FRET). The conditions noted are these: read-out: IC50 Values for Enzyme Inhibition GSK3α. The assay is classed as biochemical. On the procedure:
as §1
The following two assay variants can be used for determination of GSK 3α inhibition.
The inhibitory activities of compounds of the invention against the GSK 3α enzyme isoform (Invitrogen), are evaluated by determining the level of activation/phosphorylation of the target peptide. The GSK3-α protein (500 ng/mL, 2.5 μL) is mixed with the test compound (2.5 μL at either 4 μg/mL, 0.4 μg/mL, 0.04 μg/mL, or 0.004 μg/mL) for 2 hr at RT. The FRET peptide (8 μM, 2.5 μL), which is a phosphorylation target for GSK3α, and ATP (40 μM, 2.5 μL) are then added to the enzyme/compound mixture and the resulting mixture incubated for 1 hr. Development reagent (protease, 5 μL) is added for 1 hr prior to detection in a fluorescence microplate reader (Varioskan® Flash, ThermoFisher Scientific).
as §3
This method follows the same steps as Method 1 above, but utilises a shorter period of mixing of the test compound (105 minutes instead of 2 hours) with the GSK3-α protein.

Another assay deals with Syk (Homo sapiens (Human), UniProt P43405). The experiment in a line: Syk enzyme inhibition (Z-LYTE FRET). The assay is classed as biochemical. On the procedure: as §1, §2, §3
Another assay concerns d-U937 cells. The experiment in a line: LPS-induced TNFα/IL-8 release in d-U937 cells. It is filed as cell-based. The conditions noted are these: Homo sapiens, dU937, LPS-stimulated d-U937 cells. On the procedure:
U937 cells, a human monocytic cell line, are differentiated to macrophage-type cells by incubation with phorbol myristate acetate (PMA; 100 ng/mL) for 48 to 72 hr. Cells are pre-incubated with final concentrations of test compound for 2 hr and are then stimulated with 0.1 μg/mL of LPS (from E. Coli: O111:B4, Sigma) for 4 hr. The supernatant is collected for determination of TNFα and IL-8 concentrations by sandwich ELISA (Duo-set, R&D systems). The inhibition of TNFα production is calculated as a percentage of that achieved by 10 μg/mL of BIRB796 at each concentration of test compound by comparison against vehicle control. The relative 50% effective concentration (REC50) is determined from the resultant concentration-response curve. The inhibition of IL-8 production is calculated at each concentration of test compound by comparison with vehicle control. The 50% inhibitory concentration (IC50) is determined from the resultant concentration-response curve.

In assay [3] the target is p38 MAPKα isoform (MAPK14) (Homo sapiens (Human), UniProt Q16539). The experiment in a line: p38 MAPKα enzyme inhibition (Z-LYTE FRET). It is filed as biochemical. Here is the method:
as §1
The following two assay variants can be used for determination of p38 MAPKα inhibition.
The inhibitory activities of test compounds against the p38 MAPKα isoform (MAPK14: Invitrogen), are evaluated indirectly by determining the level of activation/phosphorylation of the down-stream molecule, MAPKAP-K2. The p38 MAPKα protein (80 ng/mL, 2.5 μL) is mixed with the test compound (2.5 μL of either 4 μg/mL, 0.4 μg/mL, 0.04 μg/mL or 0.004 μg/mL) for 2 hr at RT. […] The mixture is incubated for 1 hr at RT. Development reagent (protease, 5 μL) is added for 1 hr prior to detection in a fluorescence microplate reader (Varioskan® Flash, ThermoFisher Scientific).
This method follows the same steps as Method 1 above, but utilises a higher concentration of the p38 MAPKα protein (2.5 μL of 200 ng/mL protein instead of 2.5 μL of 80 ng/mL protein) for mixing with the test compound.
as §3

Assay [4] relates to PBMCs. The experiment in a line: LPS-induced TNFα/IL-8 release in PBMC cells. It is filed as cell-based. The following applies: Homo sapiens, LPS-stimulated PBMCs. Here is the method:
Peripheral blood mononuclear cells (PBMCs) from healthy subjects are separated from whole blood using a density gradient (Lymphoprep, Axis-Shield Healthcare). The PBMCs are seeded in 96 well plates and treated with compounds at the desired concentration for 2 hours before addition of 1 ng/mL LPS (Escherichia Coli 0111:B4 from Sigma Aldrich) for 24 hours under normal tissue culture conditions (37° C., 5% CO2). The supernatant is harvested for determination of IL-8 and TNFα concentrations by sandwich ELISA (Duo-set, R&D systems) and read on the fluorescence microplate reader (Varioskan® Flash, ThermoFisher Scientific). The concentration at 50% inhibition (IC50) of IL-8 and TNFα production is calculated from the dose response curve.

The next assay deals with HT29 cells. The experiment in a line: IL-1β-induced IL-8 release in HT29 cells. It is filed as cell-based. The following applies: Homo sapiens, HT-29, IL-1β-stimulated HT29 cells, read-out: IC50 Values for Inhibition of Cytokine Release HT29 cells IL-8. Here is the method:
HT29 cells, a human colon adenocarcinoma cell line, are plated in a 96 well plate (24 hrs) and pre-treated with compounds at the desired concentration for 2 hours before addition of 5 ng/mL of IL-1β (Abcam) for 24 hours. Supernatants are harvested for IL-8 quantification by Sandwich ELISA (Duo-set, R&D System). The IC50 is determined from the dose response curve.

Setting [5] is: IL-2, read-out: IC50 Values for Inhibition of Cytokine Release PBMCs IL-2.
The mark [6] stands for this setting: IL-8, read-out: IC50 Values for Inhibition of Cytokine Release PBMCs IL-8.
The mark [7] stands for this setting: TNBS mice, conducted over 2 days.

Sequence of p38 MAPKα isoform (MAPK14) (Q16539 whole entry, canonical isoform): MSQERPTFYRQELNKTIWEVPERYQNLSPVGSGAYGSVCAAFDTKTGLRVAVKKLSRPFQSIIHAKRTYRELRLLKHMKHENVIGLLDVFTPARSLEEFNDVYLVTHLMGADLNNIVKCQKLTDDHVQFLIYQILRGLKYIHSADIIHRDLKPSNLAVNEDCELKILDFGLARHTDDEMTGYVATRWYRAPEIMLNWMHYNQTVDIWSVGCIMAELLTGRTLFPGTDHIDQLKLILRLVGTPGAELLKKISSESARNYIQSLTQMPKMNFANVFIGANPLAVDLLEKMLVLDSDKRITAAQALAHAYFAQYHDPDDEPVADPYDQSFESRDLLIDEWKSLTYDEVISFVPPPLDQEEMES
Sequence of GSK 3α (P49840 whole entry): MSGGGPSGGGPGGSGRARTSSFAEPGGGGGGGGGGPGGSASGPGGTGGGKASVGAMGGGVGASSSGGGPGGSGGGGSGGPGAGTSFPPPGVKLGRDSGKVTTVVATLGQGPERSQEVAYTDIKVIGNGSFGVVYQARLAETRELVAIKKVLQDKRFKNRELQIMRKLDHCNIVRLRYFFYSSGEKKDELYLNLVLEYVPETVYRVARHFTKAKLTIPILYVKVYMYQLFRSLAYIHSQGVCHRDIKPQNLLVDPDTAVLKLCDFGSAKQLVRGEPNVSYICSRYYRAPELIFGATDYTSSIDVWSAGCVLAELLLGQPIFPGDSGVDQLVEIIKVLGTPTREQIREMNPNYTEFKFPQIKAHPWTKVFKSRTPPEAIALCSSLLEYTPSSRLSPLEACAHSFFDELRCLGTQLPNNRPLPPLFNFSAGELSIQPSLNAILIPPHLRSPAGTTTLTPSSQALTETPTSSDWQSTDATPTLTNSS
Sequence of c-Src (P12931 whole entry, looked up): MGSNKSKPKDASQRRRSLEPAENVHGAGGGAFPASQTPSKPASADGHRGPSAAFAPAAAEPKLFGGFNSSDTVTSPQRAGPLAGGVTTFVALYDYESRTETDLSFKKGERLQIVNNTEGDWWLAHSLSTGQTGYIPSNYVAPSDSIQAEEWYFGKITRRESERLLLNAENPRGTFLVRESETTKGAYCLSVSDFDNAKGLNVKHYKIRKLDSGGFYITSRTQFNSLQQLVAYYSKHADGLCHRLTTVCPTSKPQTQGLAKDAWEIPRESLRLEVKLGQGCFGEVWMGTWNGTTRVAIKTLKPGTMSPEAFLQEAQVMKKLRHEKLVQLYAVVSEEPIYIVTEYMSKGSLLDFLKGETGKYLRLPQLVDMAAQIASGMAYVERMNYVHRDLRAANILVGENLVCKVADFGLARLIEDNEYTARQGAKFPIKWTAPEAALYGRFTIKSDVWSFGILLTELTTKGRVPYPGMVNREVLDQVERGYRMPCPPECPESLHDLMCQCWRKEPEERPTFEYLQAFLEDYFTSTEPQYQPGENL

With `Nc1ccc(O)c(C(=O)O)c1` [Example 5-ASA, 5-aminosalicylic acid, reference compound], the Ulcer grade in assay [1] (TNBS mice, reference item, dose not given, vehicle 3.7 ± 0.3) came to 3.0 ± 0.5. In assay [1] (TNBS mice, reference item, dose not given, vehicle 4.1 ± 0.2), this compound displayed an LP inflammation of 2.3 ± 0.3.
The IC50 is the concentration that gives 50% inhibition. Consider `Cc1ccc(-n2nc([Si](C)(C)C)cc2NC(=O)Nc2ccc(Oc3ccnc(Nc4ccccc4)n3)c3ccccc23)cc1` [Example 1, 1-(4-((2-(Phenylamino)pyrimidin-4-yl)oxy)naphthalen-1-yl)-3-(1-(p-tolyl)-3-(trimethylsilyl)-1H-pyrazol-5-yl)urea], for which the IC50 was 77 nM at c-Src; 274 nM in the assay with PBMCs [2] (setting [5]); over 10000 nM at GSK 3α; over 1000 nM at Syk; 4.6 nM with d-U937 cells (IL-8, read-out: IC50 Values for Inhibition of Cytokine Release dU937 cells IL-8); 2.5 nM in the assay on d-U937 cells (TNFα, method describes REC50 relative to BIRB796, read-out: IC50 Values for Inhibition of Cytokine Release dU937 cells TNFα). Further, the IC50 in assay [3] was determined as 152 nM; with PBMCs [4] (setting [6]), 14.2 nM; with PBMCs [4] (TNFα, read-out: IC50 Values for Inhibition of Cytokine Release PBMCs TNFα), 2.8 nM; with HT29 cells, 15.6 nM.
`COCCOCCOCCOc1cc(Nc2nccc(Oc3ccc(NC(=O)Nc4cc([Si](C)(C)C)nn4-c4ccc(C)cc4)c4ccccc34)n2)cc(OC)c1` [Example 21, 1-(4-((2-((3-Methoxy-5-(2-(2-(2-methoxyethoxyl)ethoxy)ethoxy)phenyl)amino)pyrimidin-4-yl)oxy)naphthalen-1-yl)-3-(1-(p-tolyl)-3-(trimethylsilyl)-1H-pyrazol-5-yl)urea]: the IC50 against c-Src was determined as 17 nM; with PBMCs [2] (IFNγ, read-out: IC50 Values for Inhibition of Cytokine Release PBMCs IFNγ), 2 nM; with PBMCs [2] (setting [5]) it was 137 nM; on GSK 3α, 11600 nM; at Syk it was 89 nM; in [3] it was 204 nM. Further, the IC50 with PBMCs [4] (setting [6]) and with HT29 cells was 2 nM in each case. Besides, the Ulcer grade is 3.3 ± 0.5 in assay [1] (TNBS mice, 1 mg/kg oral BID, 2 days, vehicle 3.7 ± 0.3, non-diseased 0 ± 0) and 3.2 ± 0.4 in assay [1] (TNBS mice, 5 mg/kg oral BID, 2 days, vehicle 3.7 ± 0.3, non-diseased 0 ± 0). Also, the LP inflammation in assay [1] (TNBS mice, 1 mg/kg oral BID, 2 days, vehicle 4.1 ± 0.2, non-diseased 0.3 ± 0.2) came out at 3.8 ± 0.3; in assay [1] (TNBS mice, 5 mg/kg oral BID, 2 days, vehicle 4.1 ± 0.2, non-diseased 0.3 ± 0.2), 2.7 ± 0.3. For the same compound, the “activity in in vivo model of colonic inflammation (histopathology analysis)” value in assay [1] (setting [7]) was “significant activity”. The “inflammatory cell infiltrate in the reticular and laminar propria zone” value in [1] (setting [7]) was “marked reduction”. Besides, in assay [1] (dosed orally at 5 mg/kg), the “ulcer grade and epithelial repair compared to the vehicle control” value is given as “marked improvements”.
